In article PMC6316600, “Analgesic Activity of Acid-Sensing Ion Channel 3 (ASIС3) Inhibitors: Sea Anemones Peptides Ugr9-1 and APETx2 versus Low Molecular Weight Compounds” (Marine Drugs, 2018):
Entries after “also recorded” stand apart in the source; their conditions may differ. Bridge positions count the residues as written; N and C are the ends. Peptide text beside a SMILES is read from it.

Columns and labels:
[1] = test system: mice; assay: Acetic acid-induced writhing; format: in vivo, CD-1 mice
Experimental: Acetic acid-induced writhing is based on irritation of tissues and organs of the abdomen by low pH and could be considered the most appropriate test for influence on acid-induced pain. […] It is interesting that the effects of sevanol and Ugr9-1 plateaued at a wide range of doses (0.01–1mg/kg for sevanol and 0.02–1 mg/kg Ugr9-1) (Figure 3C,D).
Figure 3 Effects of ligands in an acetic acid-induced writhing test. […] (A) Efficacy of ASIC3 antagonists at a dose of 1 mg/kg. (B–D) Dose-dependent chart of ligands’ effects: APETx2 (B), sevanol (C), and Ugr9-1 (D). Results are presented as mean ± SEM (n = 8). ** p < 0.01, *** p < 0.001 versus saline group (ANOVA followed by a Tukey’s test).
Adult male CD-1 mice (Animal Breeding Facility Branch of Shemyakin-Ovchinnikov Institute of Bioorganic Chemistry, Russian Academy of Sciences, Pushchino, Russia) weighing 20–25 g were used. Animals that originally passed clinical examination that confirmed no deviations in health were divided into groups (at least eight male mice per group) using the principle of randomization. The average body weight of animals in each group was not statistically different between groups. Animals were housed at room temperature (23 ± 2 °C) and subjected to a 12-h light-dark cycle with food and water available ad libitum. All experiments were performed after receiving approval from the Animal Care and Use Committee of the Branch of the Institute of Bioorganic Chemistry, Russian Academy of Sciences (IBCh RAS) (Pushchino, Russia Federation). The samples were administered intramuscularly 2 h before testing (4 h in the open field test). […]
Separate groups of mice were used. Writhes were caused 2 h after the intramuscular injection of the samples (saline for control mice) with the injection of 0.6% acetic acid in saline (10 mL/kg intraperitoneally). Mice were immediately placed inside transparent glass cylinders, and the latency of a first writhe and the number of writhes were recorded for 15 min.
(§1) The data significance in animal tests was determined by an analysis of variance followed by a Tukey’s test. Data are presented as the mean ± SEM.

[2] = test system: ASIC3; details: cited from earlier work
Description: An inhibition of ASIC3 was reported to be an attractive approach to producing analgesia. […] Other nonspecific substances can also influence ASIC3 activity.

[3] = test system: acetic acid writhing; details: cited from earlier work
Experimental: ASIC3 channels play an important role in the perception and maintenance of pain signals in peripheral neurons. Several ligands with inhibitory properties were found for this receptor, each of which was able to induce analgesia in animal tests. The most well-known inhibitor APETx2 in various studies has been tested on models of acid-induced muscle pain model, CFA-induced inflammatory pain model (at doses of 0.07, 0.22 and 2.2 µM). Ugr9-1 was studied in models of CFA-induced thermal hyperalgesia and acetic acid writhing test (at doses of 0.5, 0.1, and 0.01 mg/kg). […] The nonspecific actions on other cellular targets and the changes of ASIC3 involvement in the inflammatory process induced by the high antagonists’ concentration for 2 h are suspected. We conclude that the inhibition of both components of ASIC3 currents could be beneficial but could be reversed by hormesis in high doses and during a long exposure to ...

[4] = test system: mice; assay: CFA-induced thermal hyperalgesia; format: in vivo, CD-1 mice; details: for Effect in CFA test at lowest dose / Dose dependence of effect, thermal hyperalgesia / Dose of maximal effect, thermal hyperalgesia / Reversal of thermal hyperalgesia, 1 mg/kg compared with 0.001–0.002 mg/kg / Thermal hyperalgesia result (in words): intramuscular; for Effect confirmed in independent experiment: sevanol 0.01 mg/kg, Ugr9-1 0.02 mg/kg, data not shown
Experimental: CFA-induced thermal hyperalgesia is a result of different inflammatory pathways’ action on thermal sensitivity of the paw. Injection of CFA into the hind paw provokes increased sensitivity to noxious mechanical and thermal stimuli together with swelling of the paw due to the inflammatory process. […] For APETx2 (Figure 4B), sevanol (Figure 4C), and Ugr9-1 (Figure 4D), the dose dependency of the analgesic effect was evaluated.
Figure 4 Effect of ligands on the CFA-induced thermal hyperalgesia test. Test was performed 2 h after intramuscular administration of ASIC3 antagonists. (A) Comparison between ligands at the dose of 1 mg/kg; (B–D) Dose-dependent chart of ligands’ effect. […] Results are presented as mean ± SEM (n = 7–8). * p < 0.05, ** p < 0.01, *** p < 0.001 versus saline group (ANOVA followed by a Tukey’s test).
(§2) Adult male CD-1 mice (Animal Breeding Facility Branch of Shemyakin-Ovchinnikov Institute of Bioorganic Chemistry, Russian Academy of Sciences, Pushchino, Russia) weighing 20–25 g were used. Animals that originally passed clinical examination that confirmed no deviations in health were divided into groups (at least eight male mice per group) using the principle of randomization. The average body weight of animals in each group was not statistically different between groups. Animals were housed at room temperature (23 ± 2 °C) and subjected to a 12-h light-dark cycle with food and water available ad libitum. All experiments were performed after receiving approval from the Animal Care and Use Committee of the Branch of the Institute of Bioorganic Chemistry, Russian Academy of Sciences (IBCh RAS) (Pushchino, Russia Federation). The samples were administered intramuscularly 2 h before testing (4 h in the open field test). The initial dose of 1 mg/kg was investigated for all samples, which was further reduced 5, 50, and 500 times for peptides.
(§3) CFA suspended in an oil/saline (1:1) emulsion was injected into the dorsal surfaces of the left hind paws of mice (20 µL/paw) 24 h before the samples’ intramuscular injection. The control mice received 20 µL of saline (intraplantar). The paw withdrawal latencies to thermal stimulation (53 °C) were measured 2 h after the sample injection. The paw diameter was evaluated before the CFA injection, before the samples and saline administration, and 2, 4, and 24 h after the administration using a digital calliper.
as §1

[5] = test system: mice; assay: CFA-induced paw oedema; format: in vivo, CD-1 mice; details: n = 7–8; for Reduction of inflammation (paw oedema): within 24 h; for Anti-inflammatory effect within 4 h: intramuscular, within 4 h after administration
Experimental: To reveal the anti-inflammatory effects of ASIC3 antagonists, paw oedema changes were also evaluated (Figure 5). […] APETx2 in a dose of 1 mg/kg reduced paw oedema by 16%, 24%, and 44% compared to the control group at 2, 4, and 24 h after administration, respectively. APETx2 at 0.2 mg/kg reduced inflammation by approximately 20% only 24 h after administration.
Figure 5 Anti-inflammatory effect of ligands. […] Results are presented as mean ± SEM (n = 7–8). * p < 0.05, ** p < 0.01, *** p < 0.001 versus saline group (ANOVA followed by a Tukey’s test).
as §2, §3, §1

[6] = test system: animal models of pain; details: cited from earlier work
[7] = intramuscular, 2 h before, n = 8

| SMILES | Writhing test result (in words) ([1]; intramuscular, 2 h before) | Dose of maximal effect, writhing test [1, 7] [mg/kg] | Dose dependence of effect, thermal hyperalgesia ([4]; 2 h before, n = 7–8) | Dose of maximal effect, thermal hyperalgesia ([4]; 2 h before, n = 7–8) [mg/kg] | Reversal of thermal hyperalgesia, 1 mg/kg compared with 0.001–0.002 mg/kg ([4]; 2 h before, n = 7–8) | Thermal hyperalgesia result (in words) ([4]; 2 h before, n = 7–8) | Effect confirmed in independent experiment [4] | Anti-inflammatory effect within 4 h [5] | further results |
| --- | --- | --- | --- | --- | --- | --- | --- | --- | --- |
| CC[C@H](C)[C@H](N)C(=O)N[C@@H](CO)C(=O)N[C@H](C(=O)N[C@@H](CC(=O)O)C(=O)N1CCC[C@H]1C(=O)N1CCC[C@H]1C(=O)N[C@H]1CSSC[C@@H](C(=O)NCC(=O)N[C@@H](C)C(=O)N[C@H](C(=O)O)C(C)C)NC(=O)CNC(=O)[C@H](Cc2ccc(O)cc2)NC(=O)[C@H](C)NC(=O)[C@H](CC(=O)O)NC(=O)[C@H](Cc2ccc(O)cc2)NC(=O)[C@H](C(C)C)NC(=O)[C@@H]2CSSC[C@H](NC(=O)[C@H](Cc3ccccc3)NC(=O)[C@H](CCCNC(=N)N)NC1=O)C(=O)N[C@@H](Cc1ccc(O)cc1)C(=O)N[C@@H](Cc1c[nH]cn1)C(=O)N[C@@H](CCCNC(=N)N)C(=O)N[C@@H](CC(=O)O)C(=O)NCC(=O)N[C@@H](CO)C(=O)NCC(=O)N[C@@H](CC(N)=O)C(=O)N2)[C@@H](C)CC [Ugr9-1] (H-ISIDPPCRFCYHRDGSGNCVYDAYGCGAV-OH; disulfide 7-26, 10-19; N-terminus and C-terminus assumed) | attenuated the response to the intraperitoneal administration of acetic acid; also recorded: The most stable effect was produced by Ugr9-1, and it was slightly more significant in lower doses (0.002 mg/kg) | 0.02 | bell-shaped; also recorded: nonlinear dose response | 0.02 | did not differ significantly | reversed CFA-induced thermal hyperalgesia and prolonging withdrawal latency of the inflamed hind paw on a hot plate | confirmed in the independent experiment | did not produce significant anti-inflammatory effects within 4 h | Effective dose, lower than that of APETx2, writhing test ([1]; Ugr9-1 versus APETx2): 10 times; Inhibition of ASIC3 current components [2]: inhibit both components of the ASIC3 current; Efficacy in acetic acid writhing test ([3]; intravenous, 30 min before testing): ~ 50%; Effect in CFA test at lowest dose ([4]; 0.002 mg/kg (Ugr9-1), 2 h before): absence of the effect; Reduction of inflammation (paw oedema) ([5]; 0.02 mg/kg intramuscular): 31%; Analgesic effect ([6]; 0.1–0.5 mg/kg): significant analgesic effect |
| O=C(O)Cc1ccccc1Nc1c(Cl)cccc1Cl [diclofenac, reference compound] | – | – | – | – | – | – | – | did not produce significant anti-inflammatory effects within 4 h | Maximal effect of reducing pain, writhing test ([1]; intramuscular, 2 h before, all doses): ~ 75%; Inhibition of ASIC3 / ASICs currents ([2]; sensory neurons and heterologous-expressed ASIC3): inhibit ASICs currents directly on sensory neurons and heterologous-expressed ASIC3 channels; Effect on acetic acid-induced writhing ([3]; 20 mg/kg i.p.): inhibited acetic acid-induced writhing; Reversal of thermal hyperalgesia, comparison at 1 mg/kg ([4]; 1 mg/kg intramuscular, 2 h before, hot plate 53 °C, n = 7–8): equal potency in the reversal of thermal hyperalgesia, which exceeded the analgesic potency of sevanol and Ugr9-1 |
| O=C(O)C[C@H](C(=O)O)[C@@H](OC(=O)C1=Cc2cc(O)c(O)cc2[C@@H](c2ccc(O)c(O)c2)[C@@H]1C(=O)O[C@@H](C(=O)O)[C@H](CC(=O)O)C(=O)O)C(=O)O [sevanol] | attenuated the response to the intraperitoneal administration of acetic acid; also recorded: The efficacy of sevanol was also high | 10 | bell-shaped; also recorded: nonlinear dose response | 0.01 | did not differ significantly | reversed CFA-induced thermal hyperalgesia and prolonging withdrawal latency of the inflamed hind paw on a hot plate | confirmed in the independent experiment | did not produce significant anti-inflammatory effects within 4 h | Inhibition of writhing ([1]; 10 mg/kg intramuscular, 2 h before, n = 8): 76%; In vivo effect, compared with peptides ([1]; sevanol versus APETx2 and Ugr9-1): almost equipotent effect in vivo; Inhibition of transient and sustained ASIC3 currents [2]: inhibited the amplitude of transient and sustained ASIC3 currents; Effect in CFA test at lowest dose ([4]; 0.001 mg/kg (sevanol), 2 h before): absence of the effect; Reduction of inflammation (paw oedema) ([5]; 2.5 mg/kg intramuscular): 22%; Analgesic and anti-inflammatory effect ([6]; mice, 1–10 mg/kg): pronounced analgesic and anti-inflammatory activity |
